Where a name gives a salt, the structure may show the parent alone.
How the values were obtained:
Recombinant human MMP-13 = molecular target: T1, Recombinant human MMP-13 (Homo sapiens, UniProt P45452); experiment: In vitro MMP inhibition, fluorogenic peptide substrate; format: biochemical
T1 construct: made in house; host or cells: baculovirus / insect cells
From the text: The expressed proenzyme was first purified over a heparin agarose column, and then over a chelating zinc chloride column. The proenzyme was then activated by APMA for use in the assay.
(§1) The enzyme substrate was a methoxycoumarin-containing polypeptide having the following sequence:
MCA-ProLeuGlyLeuDpaAlaArgNH2
(§2) Here, “MCA” is methoxycoumarin and “Dpa” is 3-(2,4-dinitrophenyl)-L-2,3-diaminopropionyl alanine.
(§3) These solutions were then compared to a control (which contained an equal amount of DMSO/buffer solution, but no hydroxamate compound) using Microfluor™ White Plates (Dynatech, Chantilly, Va.). More specifically, the MMPs were activated with APMA or trypsin. Then the various hydroxamate/DMSO/buffer solutions and control solutions were introduced into separate plates at room temperature with the activated MMP. After 10 minutes, 4 um of the MMP substrate was added to each plate. The plates were then incubated for 5 minutes at room temperature. […] Inhibition was measured as a reduction in fluorescent intensity as a function of inhibitor concentration using a Perkin Elmer (Norwalk, Conn.) L550 plate reader. The IC50's were then calculated from these measurements.

Recombinant human MMP-1 = molecular target: T2, Recombinant human MMP-1 (Homo sapiens, UniProt P03956); experiment: as above; format: biochemical
T2 construct: made in house; host or cells: transfected HT-1080 cells
T2 sequence (P03956 100-469): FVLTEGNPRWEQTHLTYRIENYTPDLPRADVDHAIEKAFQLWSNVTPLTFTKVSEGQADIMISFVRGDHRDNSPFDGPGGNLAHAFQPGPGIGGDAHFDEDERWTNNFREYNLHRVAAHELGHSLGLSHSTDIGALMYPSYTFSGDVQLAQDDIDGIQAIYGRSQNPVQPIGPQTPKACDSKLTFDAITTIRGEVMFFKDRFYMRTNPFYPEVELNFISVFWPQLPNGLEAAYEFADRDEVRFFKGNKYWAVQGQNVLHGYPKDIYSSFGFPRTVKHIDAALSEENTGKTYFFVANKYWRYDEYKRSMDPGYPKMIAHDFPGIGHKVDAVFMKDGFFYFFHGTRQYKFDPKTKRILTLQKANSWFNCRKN
Method: These enzymes were prepared in the Assignee's laboratories following usual laboratory procedures.
The MMP-1 was activated using 4-aminophenylmercuric acetate (APMA), and then purified over a hydroxamic acid column.
as §1
MCA-ProLeuGlyLeuDpaAlaArgNH2
as §2, §3

Recombinant human MMP-2 = molecular target: T3, Recombinant human MMP-2 (Homo sapiens, UniProt P08253); experiment: as above; format: biochemical
T3 construct: made in house
T3 sequence (P08253 110-660): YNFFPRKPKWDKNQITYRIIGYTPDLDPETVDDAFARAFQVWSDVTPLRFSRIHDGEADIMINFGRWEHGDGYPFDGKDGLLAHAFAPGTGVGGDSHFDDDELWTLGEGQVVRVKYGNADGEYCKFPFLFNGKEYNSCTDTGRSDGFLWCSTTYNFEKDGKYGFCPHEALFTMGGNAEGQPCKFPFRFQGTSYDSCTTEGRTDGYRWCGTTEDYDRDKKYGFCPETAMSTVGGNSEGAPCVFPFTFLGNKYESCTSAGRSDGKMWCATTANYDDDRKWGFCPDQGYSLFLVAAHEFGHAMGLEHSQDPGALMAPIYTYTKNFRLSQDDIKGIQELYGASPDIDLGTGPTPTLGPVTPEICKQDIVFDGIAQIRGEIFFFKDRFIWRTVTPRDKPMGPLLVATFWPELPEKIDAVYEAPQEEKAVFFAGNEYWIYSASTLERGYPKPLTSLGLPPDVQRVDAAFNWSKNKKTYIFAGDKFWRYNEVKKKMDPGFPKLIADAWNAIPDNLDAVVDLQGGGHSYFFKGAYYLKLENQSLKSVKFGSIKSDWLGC
From the text: as §1
MCA-ProLeuGlyLeuDpaAlaArgNH2
as §2, §3

[1] = system: solid tumor cancers (colorectal, pancreatic, ovarian, and prostate); conditions: cited from earlier work
Recombinant human MMP-14 = molecular target: T4, Recombinant human MMP-14 (Homo sapiens, UniProt P50281); experiment: In vitro MMP inhibition, fluorogenic peptide substrate; format: biochemical; conditions: Table B
T4 construct: made in house
Method: (§4) These enzymes were prepared in the Assignee's laboratories following usual laboratory procedures. Specifics for preparing and using these enzymes can be found in the scientific literature describing these enzymes.
as §1
MCA-ProLeuGlyLeuDpaAlaArgNH2
as §2, §3

Recombinant human MMP-9 = molecular target: T5, Recombinant human MMP-9 (Homo sapiens, UniProt P14780); experiment: as above; format: biochemical; conditions: Table B
T5 construct: made in house
Method: as §1
MCA-ProLeuGlyLeuDpaAlaArgNH2
as §2
More specifically, the MMPs were activated with APMA or trypsin. […] After 10 minutes, 4 um of the MMP substrate was added to each plate. The plates were then incubated for 5 minutes at room temperature. […] Inhibition was measured as a reduction in fluorescent intensity as a function of inhibitor concentration using a Perkin Elmer (Norwalk, Conn.) L550 plate reader. The IC50's were then calculated from these measurements.

Recombinant human MMP-8 = molecular target: T6, Recombinant human MMP-8 (Homo sapiens, UniProt P22894); experiment: as above; format: biochemical; conditions: Table B
T6 construct: made in house
Method: as §4, §1
MCA-ProLeuGlyLeuDpaAlaArgNH2
as §2, §3

Recombinant human MMP-3 = molecular target: T7, Recombinant human MMP-3 (Homo sapiens, UniProt P08254); experiment: as above; format: biochemical; conditions: Table B
T7 construct: made in house
T7 sequence (P08254 100-477): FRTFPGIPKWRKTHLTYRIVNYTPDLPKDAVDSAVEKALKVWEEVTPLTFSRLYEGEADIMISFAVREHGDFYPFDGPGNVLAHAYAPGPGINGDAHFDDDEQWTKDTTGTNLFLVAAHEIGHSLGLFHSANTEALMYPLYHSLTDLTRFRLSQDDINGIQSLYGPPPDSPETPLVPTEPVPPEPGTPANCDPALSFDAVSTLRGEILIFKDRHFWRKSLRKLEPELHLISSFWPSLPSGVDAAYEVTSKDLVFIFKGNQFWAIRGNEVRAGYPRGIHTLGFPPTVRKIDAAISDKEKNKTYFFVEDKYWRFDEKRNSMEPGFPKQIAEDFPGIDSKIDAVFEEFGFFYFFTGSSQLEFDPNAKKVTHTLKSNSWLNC
Method: as §4, §1
MCA-ProLeuGlyLeuDpaAlaArgNH2
as §2, §3

T5 sequence (P14780 107-707 limits assumed): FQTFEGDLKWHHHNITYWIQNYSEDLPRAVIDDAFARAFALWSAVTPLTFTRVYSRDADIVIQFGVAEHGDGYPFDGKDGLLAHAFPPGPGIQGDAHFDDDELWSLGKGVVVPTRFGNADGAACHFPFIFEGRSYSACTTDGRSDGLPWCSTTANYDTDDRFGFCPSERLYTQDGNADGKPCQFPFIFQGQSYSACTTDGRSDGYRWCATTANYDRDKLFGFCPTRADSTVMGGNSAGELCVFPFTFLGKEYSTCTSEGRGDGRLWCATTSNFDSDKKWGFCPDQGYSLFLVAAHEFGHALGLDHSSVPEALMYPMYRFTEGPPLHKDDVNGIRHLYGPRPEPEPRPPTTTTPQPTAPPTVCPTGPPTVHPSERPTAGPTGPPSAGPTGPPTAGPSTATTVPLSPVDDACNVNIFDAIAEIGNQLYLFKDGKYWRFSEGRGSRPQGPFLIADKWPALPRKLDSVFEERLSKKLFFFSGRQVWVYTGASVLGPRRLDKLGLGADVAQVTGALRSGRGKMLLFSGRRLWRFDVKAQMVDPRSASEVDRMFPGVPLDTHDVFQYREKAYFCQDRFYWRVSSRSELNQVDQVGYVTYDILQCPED
T6 sequence (P22894 101-467): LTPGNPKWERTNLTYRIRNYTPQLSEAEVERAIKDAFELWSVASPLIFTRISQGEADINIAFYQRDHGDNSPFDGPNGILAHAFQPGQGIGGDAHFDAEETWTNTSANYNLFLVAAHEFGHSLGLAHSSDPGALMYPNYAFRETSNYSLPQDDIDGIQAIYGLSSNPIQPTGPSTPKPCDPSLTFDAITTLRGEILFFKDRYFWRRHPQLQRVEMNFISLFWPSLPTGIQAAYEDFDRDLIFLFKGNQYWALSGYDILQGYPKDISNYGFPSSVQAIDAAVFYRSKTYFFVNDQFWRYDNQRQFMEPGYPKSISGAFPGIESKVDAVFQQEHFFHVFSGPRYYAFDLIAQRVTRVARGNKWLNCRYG

Question: Which results are given for `COc1ccc(NS(=O)(=O)c2ccccc2C(=O)NO)cc1` [Example 7, N-hydroxy-2-[(4-methoxyanilino)sulfonyl]benzamide]?
Answer: IC50 (Recombinant human MMP-13; Inhibition Table A): > 10000 nM; IC50 (Recombinant human MMP-1; Inhibition Table A): > 10000 nM

Question: With `O=C(NO)c1ccccc1S(=O)(=O)N1CCN(C(=O)c2ccccc2)CC1` [Example 53, 2-[(4-benzoyl-1-piperazinyl)sulfonyl]-N-hydroxybenzamide] as the compound, how does the IC50 (Recombinant human MMP-13; Table B) read?
Answer: 6700 nM

Question: And the IC50 (Recombinant human MMP-2; Table B)?
Answer: 1000 nM

Question: For `COCCOc1cccc(S(=O)(=O)N2CCC(Oc3ccc(C(F)(F)F)cc3)CC2)c1C(=O)NO` [Example 23, N-hydroxy-2-(2-methoxyethoxy)-6-[[4-[4-(trifluoromethyl)phenoxy]-1-piperidinyl]sulfonyl]benzamide], which IC50 (Recombinant human MMP-1; Table B) is on record?
Answer: > 10000 nM

Question: Which results are given for `CNC(=O)[C@@H](NC(=O)[C@H](CC(C)C)[C@H](O)C(=O)NO)C(C)(C)C` [Marimastat]?
Answer: most common drug-related toxicity ([1]; clinical trials): musculoskeletal pain and stiffness; effect on cancer-specific antigens used as surrogate markers for biological activity ([1]; meta analysis of Phase I/II data, patients with advanced, treatment-refractory solid tumors): dose-related reduction in the rise of cancer-specific antigens

Question: With `O=C(NO)c1ccccc1S(=O)(=O)Nc1ccc(Oc2ccccc2)cc1` [Example 15, N-hydroxy-2-[[(4-phenoxyphenyl)-amino]sulfonyl]benzamide] as the compound, how does the IC50 (Recombinant human MMP-13; Inhibition Table A) read?
Answer: 9000 nM

Question: What about the IC50 (Recombinant human MMP-1; Inhibition Table A) of the same compound?
Answer: > 10000 nM

Question: And the IC50 (Recombinant human MMP-2; Inhibition Table A)?
Answer: 3500 nM

Question: What does the source list for `CCCCOc1ccc(N2CCN(S(=O)(=O)c3ccc(OC)c(OC)c3C(=O)NO)CC2)cc1F` [Example 25, 6-[[4-(butoxy-3-fluorophenyl)-1-piperazinyl]sulfonyl]-N-hydroxy-2,3-dimethoxybenzamide]?
Answer: IC50 (Recombinant human MMP-13; Table B): 8.5 nM; IC50 (Recombinant human MMP-1; Table B): > 10000 nM; IC50 (Recombinant human MMP-14): > 10000 nM; IC50 (Recombinant human MMP-2; Table B): 0.4 nM; IC50 (Recombinant human MMP-9): 22.1 nM; IC50 (Recombinant human MMP-8): 252 nM; IC50 (Recombinant human MMP-3): 294 nM

Question: With `O=C(NO)c1ccccc1S(=O)(=O)N1CCC(c2ccccc2)CC1` [Example 9, N-Hydroxy-2-[[4-(phenyl)-1-piperidnyl]sulfonyl]benzamide] as the compound, how does the IC50 (Recombinant human MMP-1; Inhibition Table A) read?
Answer: > 10000 nM

Question: For `CC(O)(C(=O)NO)c1ccccc1S(=O)(=O)N1CCC(c2ccccc2)CC1` (centres unmarked) [Example 10, N,2-dihydroxy-2-methyl-2-[(4-phenyl-1-piperidinyl)sulfonyl]benzeneacetamide], which IC50 (Recombinant human MMP-1; Inhibition Table A) is on record?
Answer: > 10000 nM

Question: Which IC50 (Recombinant human MMP-1; Inhibition Table A) does the source give for `O=C(NO)c1ccccc1CS(=O)(=O)c1ccc(Oc2ccccc2)cc1` [Example 1, N-hydroxy-2-[[(4-phenoxyphenyl)-sulfonyl]methyl]benzamide] here?
Answer: > 10000 nM

Question: With `O=C(NO)c1ccccc1S(=O)(=O)N1CCC(Oc2ccc(OC(F)(F)F)cc2)CC1` [Example 12, N-hydroxy-2-[[4-[4-(trifluoromethoxy)phenoxy]-1-piperidinyl]sulfonyl]benzamide] as the compound, how does the IC50 (Recombinant human MMP-13; Inhibition Table A) read?
Answer: 33 nM

Question: And the IC50 (Recombinant human MMP-1; Inhibition Table A)?
Answer: > 10000 nM

Question: With `COc1ccc(C(=O)NC2CCN(S(=O)(=O)c3ccccc3C(=O)NO)C2)cc1` (centres unmarked) [Example 11, N-hydroxy-2-[[3-[(4-methoxybenzoyl)amino]-1-pyrrolidinyl]sulfonyl]benzamide] as the compound, how does the IC50 (Recombinant human MMP-13; Inhibition Table A) read?
Answer: 2200 nM

Question: What about the IC50 (Recombinant human MMP-2; Inhibition Table A) of the same compound?
Answer: 2300 nM

Question: For `O=C(NO)c1ccccc1S(=O)(=O)N1CCC(Oc2ccccn2)CC1` [Example 44, N-hydroxyl-2-[[4-(2-pyridinyloxy)-1-piperidinyl]sulfonyl]benzamide, monohydrochloride], which IC50 (Recombinant human MMP-1; Table B) is on record?
Answer: > 10000 nM

Question: What does the source list for `COc1ccc(-c2ccc(OC3CCN(S(=O)(=O)c4ccc(OC)c(OC)c4C(=O)NO)CC3)cc2)cc1OC` [Example 27]?
Answer: IC50 (Recombinant human MMP-13; Table B): 2.6 nM; IC50 (Recombinant human MMP-1; Table B): > 10000 nM; IC50 (Recombinant human MMP-14): 1700 nM; IC50 (Recombinant human MMP-2; Table B): 3.3 nM; IC50 (Recombinant human MMP-9): 370 nM; IC50 (Recombinant human MMP-8): 115 nM; IC50 (Recombinant human MMP-3): 100 nM

Question: Which IC50 (Recombinant human MMP-8) does the source give for `COc1ccc(S(=O)(=O)N2CCC(Sc3ccccc3)CC2)c(C(=O)NO)c1OC` [Example 24] here?
Answer: 107 nM

Question: Which IC50 (Recombinant human MMP-1; Inhibition Table A) does the source give for `O=C(NO)c1ccccc1S(=O)(=O)N1CCC(Oc2ccc(C(F)(F)F)cc2)CC1` [Example 13, N-hydroxy-2-[[4-[4-(trifluoromethyl)phenoxy]-1-piperidinyl]sulfonyl]benzamide] here?
Answer: > 10000 nM

Question: Which results are given for `O=C(NO)c1ccccc1S(=O)(=O)N1CCC(Cc2ccccc2)CC1` [Example 3, N-hydroxy-2-[[4-(phenylmethyl)-1-piperidinyl]sulfonyl]benzamide]?
Answer: IC50 (Recombinant human MMP-13; Inhibition Table A): 1000 nM; IC50 (Recombinant human MMP-1; Inhibition Table A): > 10000 nM; IC50 (Recombinant human MMP-2; Inhibition Table A): 148 nM

Question: Which IC50 (Recombinant human MMP-13; Inhibition Table A) does the source give for `O=C(NO)c1ccccc1S(=O)(=O)NCc1ccccc1` [Example 8, N-hydroxy-2-[(benzylamino)sulfonyl]benzamide] here?
Answer: > 10000 nM

Question: What about the IC50 (Recombinant human MMP-1; Inhibition Table A) of the same compound?
Answer: > 10000 nM

Question: For `COc1ccccc1-c1ccc(OC2CCN(S(=O)(=O)c3ccc(OC)c(OC)c3C(=O)NO)CC2)cc1` [Example 22], which IC50 (Recombinant human MMP-1; Table B) is on record?
Answer: > 10000 nM

Question: What does the source list for `O=C(NO)c1ccccc1S(=O)(=O)Cc1ccc(-c2ccccc2)cc1` [Example 4, 2-[([1,11-biphenyl]-4-ylmethyl)-sulfonyl]-N-hydroxybenzamide]?
Answer: IC50 (Recombinant human MMP-13; Inhibition Table A): > 10000 nM; IC50 (Recombinant human MMP-1; Inhibition Table A): > 10000 nM; IC50 (Recombinant human MMP-2; Inhibition Table A): > 10000 nM

Question: With `O=C(NO)c1ccccc1NS(=O)(=O)c1ccc(Oc2ccccc2)cc1` [Example 5, N-hydroxy-2-[[(4-phenoxyphenyl)-sulfonyl]amino]benzamide] as the compound, how does the IC50 (Recombinant human MMP-13; Inhibition Table A) read?
Answer: > 10000 nM

Question: And the IC50 (Recombinant human MMP-1; Inhibition Table A)?
Answer: > 10000 nM

Question: Which IC50 (Recombinant human MMP-1; Inhibition Table A) does the source give for `COc1ccc(S(=O)(=O)N2CCC(Oc3ccc(C(F)(F)F)cc3)CC2)c(C(=O)NO)c1OC` [Example 16, N-hydroxy-2,3-dimethoxy-6-[[4-[4-(trifluoromethyl)phenoxy]-1-piperidinyl)sulfonyl]benzamide] here?
Answer: > 10000 nM

Question: Which results are given for `COc1ccc(S(=O)(=O)N2CCN(c3ccc(OC(F)(F)F)cc3)CC2)c(C(=O)NO)c1OC` [Example 26]?
Answer: IC50 (Recombinant human MMP-13; Table B): 17.9 nM; IC50 (Recombinant human MMP-1; Table B): > 10000 nM; IC50 (Recombinant human MMP-14): 416 nM; IC50 (Recombinant human MMP-2; Table B): 0.4 nM; IC50 (Recombinant human MMP-9): 40.1 nM; IC50 (Recombinant human MMP-8): 7.1 nM; IC50 (Recombinant human MMP-3): 1460 nM

Question: Which IC50 (Recombinant human MMP-1; Inhibition Table A) does the source give for `O=C(NO)c1c(F)cccc1S(=O)(=O)N1CCC(Oc2ccc(C(F)(F)F)cc2)CC1` [Example 19] here?
Answer: > 10000 nM

Question: Which IC50 (Recombinant human MMP-13; Inhibition Table A) does the source give for `O=C(NO)c1ccccc1S(=O)(=O)N1CCC(OCc2ccc(C(F)(F)F)cc2)CC1` [Example 14, N-hydroxy-2-[[4-[[4-(trifluoromethyl)phenyl]methoxy]-1-piperidinyl]sulfonyl]benzamide] here?
Answer: 900 nM

Question: And the IC50 (Recombinant human MMP-1; Inhibition Table A)?
Answer: > 10000 nM

Question: And the IC50 (Recombinant human MMP-2; Inhibition Table A)?
Answer: 35 nM

Question: What does the source list for `O=C(NO)c1ccccc1S(=O)(=O)N1CCC(Oc2ccc(C(F)(F)F)cc2)C1` (centres unmarked) [Example 17, N-hydroxy-2-[[3-[4-(trifluoromethyl)phenoxy]-1-pyrrolidinyl]sulfonyl]benzamide]?
Answer: IC50 (Recombinant human MMP-13; Inhibition Table A): 2000 nM; IC50 (Recombinant human MMP-2; Inhibition Table A): 1800 nM
